Source: patent US12521375B2, “Pharmaceutical composition for treating fatty liver disease” (Shionogi & Co., Ltd., priority 2020, dated 2026)
Where “and” joins values, the source holds several entries; their conditions need not be identical. Identical values can stand only once.

What was measured:
[1] = tested on: Malonyl-CoA concentration in organ; assay: Test for evaluating malonyl-CoA concentration in liver and muscles; format: in vivo, BKS.Cg-+Lepr^db/+Lepr^db/Jcl mice; conditions: for Malonyl-CoA concentration in organ with vehicle administration group defined as 100%, Liver / Malonyl-CoA concentration in organ with vehicle administration group defined as 100%, Muscle: 2 hours after administration
Method: Eight-week-old male BKS.Cg-+Lepr^db/+Lepr^db/Jcl mice were fasted for 4 hours, then the compound of the present invention was orally administered at a dose of 0.3 to 6 mg/5 mL/kg, and 2 hours after administration, the mice were killed by exsanguination through whole blood collection from the abdominal vena cava under anesthesia. Then, the liver and muscles were removed, and a 9% homogenate was prepared in a homogenizing buffer (distilled water: 60% perchloric acid: 85% phosphoric acid=43:5:2). The malonyl-CoA concentration in the tissue was quantified by LC/MS/MS.

Crl:CD (SD) rats = assay: Influence on platelet count; format: in vivo; conditions: for Platelet count: oral, 4 days, SD rats
Method: The compound of the present invention was suspended in a 0.5% methylcellulose solution so as to have a dose of 50 to 600 mg/kg/day, and was orally repeatedly administered for 4 days to 6-week-old male Crl:CD (SD) rats under non-fasted conditions. On day 5 from the start of administration, blood was collected from the abdominal vena cava under anesthesia, and […]. A platelet count in plasma was evaluated with an automatic hemocytometer.

[2] = tested on: high-fat diet-loaded mice with spontaneous fatty liver; assay: Effect on liver fibrosis progression in high-fat diet-loaded mice with spontaneous fatty liver; format: in vivo, FLS.B6-Lep<ob>/Shi mice; parameters: 3-hydroxybutyric acid in plasma: unit not given here; conditions: bid; for Amount of triglyceride in liver / Sirius red-positive area rate: oral, 4 weeks; for Change in hemoglobin A1c (day 26 of administration) − (before start of administration) / Hemoglobin A1c, Before start of administration / Hemoglobin A1c, Day 26 of administration: individual animals
Method: Eight-week-old male FLS.B6-Lep/Shi mice were fed a high-fat diet (60 kcal % fat content, using shortening, containing 2% cholesterol and 8.7% fructose), and at the same time, the compound of the present invention was suspended in a 0.5% MC aqueous solution so as to have a dose of 5.5 to 60 mg/kg/5 mL, and orally repeatedly administered (b.i.d.) for 4 weeks. Blood was collected from the tail vein during the repeated administration period, and biochemical parameters in plasma were measured. After 4 weeks of administration, blood was collected from the abdominal vena cava under anesthesia, and then the liver was collected. Paraffin-embedded sections prepared from the collected liver were subjected to Sirius red staining. A degree of fibrosis progression in the liver was determined from a Sirius red-positive area rate and evaluated.

Platelet count (Crl:CD (SD) rats; 50 mg/kg/day): 1079 ± 73
Platelet count (Crl:CD (SD) rats; 100 mg/kg/day): 1048 ± 65
Platelet count (Crl:CD (SD) rats; 200 mg/kg/day): 1122 ± 87
platelet count in SD rats (in words) (Crl:CD (SD) rats; within a dose range used for evaluation (50 to 600 mg/kg/day)): did not affect the platelet count
Plasma triglyceride concentration ([2]; 30 mg/kg, Week 0): 680 ± 81 mg/dL
Plasma triglyceride concentration ([2]; 30 mg/kg, Week 1): 299 ± 27 mg/dL
Plasma triglyceride concentration ([2]; 30 mg/kg, Week 4): 600 ± 59 mg/dL
Plasma triglyceride concentration ([2]; 45 mg/kg, Week 0): 644 ± 89 mg/dL
Plasma triglyceride concentration ([2]; 45 mg/kg, Week 1): 279 ± 40 mg/dL
Plasma triglyceride concentration ([2]; 45 mg/kg, Week 4): 572 ± 54 mg/dL
Plasma triglyceride concentration ([2]; 60 mg/kg, Week 0): 829 ± 97 mg/dL
Plasma triglyceride concentration ([2]; 60 mg/kg, Week 1): 322 ± 30 mg/dL
Plasma triglyceride concentration ([2]; 60 mg/kg, Week 4): 641 ± 86 mg/dL
SMILES: CC(=O)N[C@@H](C)CC[C@H]1OC[C@H](Oc2nc3c(F)cc(OC4CC4)cc3n2C)CO1 [Compound I-13]
Malonyl-CoA concentration in organ with vehicle administration group defined as 100%, Liver ([1]; 0.3 mg/kg oral): 90.9%
Malonyl-CoA concentration in organ with vehicle administration group defined as 100%, Muscle ([1]; 0.3 mg/kg oral): 72.8%
Malonyl-CoA concentration in organ with vehicle administration group defined as 100%, Liver ([1]; 1 mg/kg oral): 86.5%
Malonyl-CoA concentration in organ with vehicle administration group defined as 100%, Muscle ([1]; 1 mg/kg oral): 64.9%
Malonyl-CoA concentration in organ with vehicle administration group defined as 100%, Liver ([1]; 3 mg/kg oral): 79.9%
Malonyl-CoA concentration in organ with vehicle administration group defined as 100%, Muscle ([1]; 3 mg/kg oral): 58.4%
malonyl-CoA concentrations in the liver and muscles (in words) ([1]; 0.3 to 6 mg/kg oral): reduced malonyl-CoA concentrations in the liver and muscles in a compound dose-dependent manner
Amount of triglyceride in liver ([2]; 30 mg/kg): 234 ± 21 mg/g tissue
Sirius red-positive area rate ([2]; 30 mg/kg): 3.05 ± 0.28 %
3-hydroxybutyric acid in plasma ([2]; 30 mg/kg, Week 0): 252 ± 73
3-hydroxybutyric acid in plasma ([2]; 30 mg/kg, Week 1): 397 ± 140
3-hydroxybutyric acid in plasma ([2]; 30 mg/kg, Week 4): 1888 ± 570
Change in hemoglobin A1c (day 26 of administration) − (before start of administration) ([2]; 30 mg/kg): 1.10% and 2.61% and 0.359% and 0.580% and 0.200% and 1.37% and 0.484% and 1.14% and 1.05%
Hemoglobin A1c, Before start of administration ([2]; 30 mg/kg): 6.40% and 6.59% and 6.70% and 6.32% and 7.03% and 7.49% and 7.05% and 6.78% and 6.28%
Hemoglobin A1c, Day 26 of administration ([2]; 30 mg/kg): 7.50% and 9.21% and 7.05% and 6.90% and 7.23% and 8.86% and 7.54% and 7.91% and 7.32%
Amount of triglyceride in liver ([2]; 45 mg/kg): 211 ± 19 mg/g tissue
Sirius red-positive area rate ([2]; 45 mg/kg): 2.65 ± 0.34 %
3-hydroxybutyric acid in plasma ([2]; 45 mg/kg, Week 0): 291 ± 130
3-hydroxybutyric acid in plasma ([2]; 45 mg/kg, Week 1): 829 ± 490
3-hydroxybutyric acid in plasma ([2]; 45 mg/kg, Week 4): 1803 ± 640
Change in hemoglobin A1c (day 26 of administration) − (before start of administration) ([2]; 45 mg/kg): 0.591% and 0.429% and −0.888% and −0.504% and 2.17% and 0.162% and 0.562% and 1.50% and 0.667%
Hemoglobin A1c, Before start of administration ([2]; 45 mg/kg): 6.58% and 6.74% and 7.06% and 5.77% and 5.87% and 7.03% and 6.43% and 6.83% and 7.47%
Hemoglobin A1c, Day 26 of administration ([2]; 45 mg/kg): 7.17% (2×) and 6.17% and 5.26% and 8.04% and 7.19% and 6.99% and 8.33% and 8.13%
Amount of triglyceride in liver ([2]; 60 mg/kg): 235 ± 20 mg/g tissue
Sirius red-positive area rate ([2]; 60 mg/kg): 2.75 ± 0.36 %
3-hydroxybutyric acid in plasma ([2]; 60 mg/kg, Week 0): 217 ± 28
3-hydroxybutyric acid in plasma ([2]; 60 mg/kg, Week 1): 351 ± 72
3-hydroxybutyric acid in plasma ([2]; 60 mg/kg, Week 4): 1260 ± 170
Change in hemoglobin A1c (day 26 of administration) − (before start of administration) ([2]; 60 mg/kg): 0.493% and 0.0708% and 0.696% and 0.463% and 0.150% and −0.0552% and 0.719% and −0.0504%
